In patent publication US20250282820A1, “PEPTIDE COMPLEX HAVING TRKB BINDING ACTIVITY” (PEPTIDREAM INC, priority 2022, published 2025):
*1 amine or outer side, *2 acyl side, *3 side chain or, on linkers, in order; H or OH if unused. Where a SMILES comes first, the peptide text is derived from it. Bridges are numbered along the chain shown (N, C = ends). Roman numbers before positions name the chains, in order. [ ]: non-standard residue; d: D form. PEG8 = NCCOCCOCCOCCOCCOCCOCCOCCOCCC(=O)O; 3Pal = N[C@@H](Cc1cccnc1)C(=O)O; X2 = O=C(CCOCCC(=O)[*:2])[*:1]

What was measured:
Assay type in all cases: cell-based
[1] = biological target: T1, TrkB (CellSensor TrkB-NFAT-bla CHO-K1 Cell) (Homo sapiens, UniProt Q16620); assay: NFAT transcriptional reporter assay for TrkB agonist activity; conditions: class = peptide concentration giving 50% or more activity; BDNF maximum signal = 100%, no stimulation = 0%; 5 hours culture
T1 construct: host or cells: CHO-K1 (CellSensor TrkB-NFAT-bla CHO-K1)
T1 sequence (Q16620 32-822): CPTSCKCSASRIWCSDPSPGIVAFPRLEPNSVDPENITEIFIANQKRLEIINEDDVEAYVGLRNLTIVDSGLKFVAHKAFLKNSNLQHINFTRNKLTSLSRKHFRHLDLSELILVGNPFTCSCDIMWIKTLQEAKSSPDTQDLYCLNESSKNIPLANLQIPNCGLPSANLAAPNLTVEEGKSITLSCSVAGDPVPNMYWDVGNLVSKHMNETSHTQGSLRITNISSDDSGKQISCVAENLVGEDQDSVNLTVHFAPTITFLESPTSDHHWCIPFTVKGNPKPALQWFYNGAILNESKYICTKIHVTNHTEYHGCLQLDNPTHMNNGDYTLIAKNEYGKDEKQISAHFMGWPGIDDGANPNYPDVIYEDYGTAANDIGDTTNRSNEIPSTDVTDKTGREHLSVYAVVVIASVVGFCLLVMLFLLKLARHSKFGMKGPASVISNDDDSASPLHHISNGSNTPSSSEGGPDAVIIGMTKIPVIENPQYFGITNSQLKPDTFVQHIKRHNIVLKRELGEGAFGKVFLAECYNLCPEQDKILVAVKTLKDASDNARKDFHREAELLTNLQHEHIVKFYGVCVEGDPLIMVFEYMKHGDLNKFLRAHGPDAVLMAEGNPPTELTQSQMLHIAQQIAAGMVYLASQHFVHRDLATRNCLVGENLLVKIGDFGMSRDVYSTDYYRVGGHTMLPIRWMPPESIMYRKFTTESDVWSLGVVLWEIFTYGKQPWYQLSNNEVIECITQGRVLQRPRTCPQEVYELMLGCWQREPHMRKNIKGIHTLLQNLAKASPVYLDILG
Experimental: To evaluate the TrkB activation potency of the TrkB agonist peptide of the present invention, transcriptional activity was examined using transcriptional reporters. The CellSensor (registered trademark) TrkB-NFAT-bla CHO-K1 Cell (Invitrogen) used in the AlphaLISA assay was cultured in the medium above. After the cells were detached using Accutase (Innovative Cell Technologies), the cells were suspended in an assay medium, wherein Blasticidin and Zeocin were removed, then seeded into a 96-well plate for adherent cultures at 12,500 cells per well and cultured overnight. Then, BDNF or a peptide was added thereto, and the cells were further cultured in a CO2 incubator for 5 hours. After the 96-well plate was removed from the incubator and brought to room temperature, a detection reagent (LiveBLAzer (registered trademark)-FRET B/G (CCF4-AM) Substrate Mixture) was added while protected from the light, and the 96-well plate was incubated while protected from the light in a moisture box with a lid for 2 hours. For signal detection, a EnVision 2104 Multilabel Plate Reader (PerkinElmer) was used, and the ratio of fluorescence emission value (460 nm/535 nm) was calculated. The obtained numerical values were analyzed with GraphPad Prism, and the activity (%) was calculated with the maximum value of the signals induced by BDNF as 100% and a signal with no stimulation as 0%. The peptide with 50% or more activity when 1 nM of the peptide was added was evaluated as A, the peptide with 50% or more activity when 10 nM of the peptide was added was evaluated as B, and the peptide with 50% or more activity when 100 nM of the peptide was added was evaluated as C. Those that were not evaluated were listed as not tested.
The BDNF was evaluated at 7 points (0.0024 nM to 10 nM) from 10 nM using 4-fold dilutions.
(§1) For dimer structures Nos. 1 to 3, the peptide was evaluated at 1 nM, 10 nM, and 100 nM, and, for other dimer structure numbers, the peptide was evaluated at 0.1 nM, 1 nM, and 10 nM. When creating the concentration dependence curve, the BDNF and the peptides were evaluated at 7 points (0.006 nM to 100 nM) from 25 nM using 4-fold dilutions.

[2] = biological target: TrkB (Homo sapiens, UniProt Q16620); assay: PathHunter eXpress TrkB Functional Assay (phosphorylation of TrkB); conditions: maximum signal induced by BDNF = 100%; stimulation for 3 hours
Chain of TrkB (Q16620 32-822): as above
Experimental: To evaluate the TrkB activation potency of the TrkB agonist peptide of the present invention, the phosphorylation of TrkB was examined. The PathHunter (registered trademark) eXpress TrkB Functional Assay kit (DiscoverX; cells, 96-well plate, medium, and detection reagents included) was used and the evaluation was performed according to the attached protocols. The frozen cells were thawed and suspended in the medium, then seeded into a 96-well plate at 10,000 cells per well and incubated for 48 hours. Thereafter, Recombinant Human BDNF Protein (R&D Systems) or a peptide was added, and after stimulation for 3 hours, a detection reagent was added. The reaction was performed while protected from the light at room temperature for 60 minutes, and luminescent signals were measured using a SpectraMax Paradigm Multi-Mode Microplate Reader (Molecular Devices). The obtained signals were analyzed with GraphPad Prism, and the activity (%) was calculated with the maximum value of the signals induced by BDNF as 100% and a signal with no stimulation as 0%.
The BDNF was evaluated at 8 points (0.006 nM to 100 nM) from 100 nM using 4-fold dilutions. The peptide was evaluated in the measurement ranges A to C shown below. • Measurement range A=6 points from 100 nM using 5-fold dilutions (0.032 nM to 100 nM) • Measurement range B=8 points from 100 nM using 4-fold dilutions (0.006104 nM to 100 nM) • Measurement range C=4 points from 10 nM using 10-fold dilutions (0.01 nM to 10 nM)

[3] = biological target: T1, TrkB (CellSensor TrkB-NFAT-bla CHO-K1 Cell); assay: pERK1/2 AlphaLISA assay (phosphorylation of ERK) for TrkB agonist activity; conditions: class = peptide concentration giving 50% or more activity; BDNF maximum signal = 100%, no stimulation = 0%; 15 minutes of stimulation
Experimental: To evaluate the TrkB activation potency of the TrkB agonist peptide of the present invention, the phosphorylation of ERK was examined. CellSensor (registered trademark) TrkB-NFAT-bla CHO-K1 Cell (Invitrogen) was cultured in DMEM, high glucose, GlutaMAX (registered trademark) Supplement, and pyruvate (Thermo), comprising 10% FBS (Thermo) and 1× Non-essential amino acids (Thermo), 25 mM HEPES (Thermo), 50 ug/mL Gentamicin, 5 ug/mL Blasticidin (Thermo), and 200 ug/mL Zeocin (Thermo). After the cells were detached using Accutase (Innovative Cell Technologies), they were seeded into a 96-well plate for adherent cultures at 12,500 cells per well and cultured overnight. The next day, for starvation, the culture solution above was replaced with a nutrient starvation medium comprising 0.1% BSA (Sigma), wherein FBS, Blasticidin, and Zeocin were removed from the culture medium, and culturing was performed for 4 hours. Thereafter, Recombinant Human BDNF Protein (R&D Systems) or a peptide was added, and after 15 minutes of stimulation, cells were lysed in the Lysis Buffer provided with the AlphaLISA SureFire Ultra p-Erk1/2 (Thr202/Tyr204) assay kit (PerkinElmer). The assay was performed according to the kit protocol. The signals were detected using a SpectraMax Paradigm Multi-Mode Microplate Reader (Molecular Devices). The obtained signals were analyzed with GraphPad Prism, and the activity (%) was calculated with the maximum value of the signals induced by BDNF as 100% and a signal with no stimulation as 0%. The peptide with 50% or more activity when 1 nM of the peptide was added was evaluated as A, and the peptide with 50% or more activity when 10 nM of the peptide was added was evaluated as B.
The BDNF was evaluated at 8 points (0.0006 nM to 10 nM) from 10 nM using 4-fold dilutions.
as §1, with “8” for “7”, “100” for “25”

Row | Structure (SMILES) | NFAT Assay Results [1] | Emax [2] | pERK (aLISA) Assay Results [3]
1 | CC(C)[C@@H]1NC(=O)[C@H](Cc2cccnc2)NC(=O)[C@H](CCC(=O)O)NC(=O)[C@H](CO)NC(=O)[C@H](Cc2ccc(O)cc2)NC(=O)[C@H]([C@@H](C)O)NC(=O)[C@@H]2CCCN2C(=O)[C@H](Cc2c[nH]c3ccccc23)NC(=O)[C@H](Cc2cccnc2)NC(=O)[C@H](Cc2ccc(O)cc2)NC(=O)[C@@H]2CCCN2C(=O)[C@H](CO)NC(=O)[C@H](Cc2ccccc2)NC(=O)CSC[C@@H](C(=O)NCC(=O)NCCOCCOCCOCCOCCOCCOCCOCCOCCC(=O)NCCCC[C@H](NC(=O)CCOCCOCCOCCOCCOCCOCCOCCOCCNC(=O)CNC(=O)[C@@H]2CSCC(=O)N[C@@H](Cc3ccccc3)C(=O)N[C@@H](CO)C(=O)N3CCC[C@H]3C(=O)N[C@@H](Cc3ccc(O)cc3)C(=O)N[C@@H](Cc3cccnc3)C(=O)N[C@@H](Cc3c[nH]c4ccccc34)C(=O)N3CCC[C@H]3C(=O)N[C@@H]([C@@H](C)O)C(=O)N[C@@H](Cc3ccc(O)cc3)C(=O)N[C@@H](CO)C(=O)N[C@@H](CCC(=O)O)C(=O)N[C@@H](Cc3cccnc3)C(=O)N[C@@H](C(C)C)C(=O)N[C@@H](CCC(=O)O)C(=O)N2)C(N)=O)NC(=O)[C@H](CCC(=O)O)NC1=O [compound 15] (I: {CH2CO}-FSPY[3Pal]WPTYSE[3Pal]VECG[PEG8]K-NH2 / II: {CH2CO}-FSPY[3Pal]WPTYSE[3Pal]VECG[PEG8]; amide I:18-II:C (inferred); thioether I:N-I:15, II:N-II:15 (inferred)) | A (The peptide with 50% or more activity when 1 nM of the peptide was added was evaluated as A) | 104% | A (The peptide with 50% or more activity when 1 nM of the peptide was added was evaluated as A)
2 | CC(C)[C@@H]1NC(=O)[C@H](Cc2cccnc2)NC(=O)[C@H](CCC(=O)O)NC(=O)[C@H](CO)NC(=O)[C@H](Cc2ccc(O)cc2)NC(=O)[C@H]([C@@H](C)O)NC(=O)[C@@H]2CCCN2C(=O)[C@H](Cc2c[nH]c3ccccc23)NC(=O)[C@H](Cc2cccnc2)NC(=O)[C@H](Cc2ccc(O)cc2)NC(=O)[C@@H]2CCCN2C(=O)[C@H](CCC(=O)O)NC(=O)[C@H](Cc2ccccc2)NC(=O)CSC[C@@H](C(=O)NCC(=O)NCCOCCOCCOCCOCCOCCOCCOCCOCCC(=O)NCCCC[C@H](NC(=O)CCOCCOCCOCCOCCOCCOCCOCCOCCNC(=O)CNC(=O)[C@@H]2CSCC(=O)N[C@@H](Cc3ccccc3)C(=O)N[C@@H](CCC(=O)O)C(=O)N3CCC[C@H]3C(=O)N[C@@H](Cc3ccc(O)cc3)C(=O)N[C@@H](Cc3cccnc3)C(=O)N[C@@H](Cc3c[nH]c4ccccc34)C(=O)N3CCC[C@H]3C(=O)N[C@@H]([C@@H](C)O)C(=O)N[C@@H](Cc3ccc(O)cc3)C(=O)N[C@@H](CO)C(=O)N[C@@H](CCC(=O)O)C(=O)N[C@@H](Cc3cccnc3)C(=O)N[C@@H](C(C)C)C(=O)N[C@@H](CO)C(=O)N2)C(N)=O)NC(=O)[C@H](CO)NC1=O [compound 18] (I: {CH2CO}-FEPY[3Pal]WPTYSE[3Pal]VSCG[PEG8]K-NH2 / II: {CH2CO}-FEPY[3Pal]WPTYSE[3Pal]VSCG[PEG8]; amide I:18-II:C (inferred); thioether I:N-I:15, II:N-II:15 (inferred)) | A (The peptide with 50% or more activity when 1 nM of the peptide was added was evaluated as A) | 93% | A (The peptide with 50% or more activity when 1 nM of the peptide was added was evaluated as A)
3 | CC(C)[C@@H]1NC(=O)[C@H](Cc2cccnc2)NC(=O)[C@H](CCC(=O)O)NC(=O)[C@H](CO)NC(=O)[C@H](Cc2ccc(O)cc2)NC(=O)[C@H]([C@@H](C)O)NC(=O)[C@@H]2CCCN2C(=O)[C@H](Cc2c[nH]c3ccccc23)NC(=O)[C@H](Cc2cccnc2)NC(=O)[C@H](Cc2ccc(O)cc2)NC(=O)[C@@H]2CCCN2C(=O)[C@H](CO)NC(=O)[C@H](Cc2ccccc2)NC(=O)CSC[C@@H](C(=O)NCC(=O)NCCOCCOCCOCCOCCOCCOCCOCCOCCC(=O)N[C@@H](CCCCNC(=O)CCOCCC(=O)NCCCC[C@H](NC(=O)CCOCCOCCOCCOCCOCCOCCOCCOCCNC(=O)CNC(=O)[C@@H]2CSCC(=O)N[C@@H](Cc3ccccc3)C(=O)N[C@@H](CO)C(=O)N3CCC[C@H]3C(=O)N[C@@H](Cc3ccc(O)cc3)C(=O)N[C@@H](Cc3cccnc3)C(=O)N[C@@H](Cc3c[nH]c4ccccc34)C(=O)N3CCC[C@H]3C(=O)N[C@@H]([C@@H](C)O)C(=O)N[C@@H](Cc3ccc(O)cc3)C(=O)N[C@@H](CO)C(=O)N[C@@H](CCC(=O)O)C(=O)N[C@@H](Cc3cccnc3)C(=O)N[C@@H](C(C)C)C(=O)N[C@@H](CCC(=O)O)C(=O)N2)C(N)=O)C(N)=O)NC(=O)[C@H](CCC(=O)O)NC1=O [compound 33] (I: {CH2CO}-FSPY[3Pal]WPTYSE[3Pal]VECG[PEG8]K-NH2 / II: {CH2CO}-FSPY[3Pal]WPTYSE[3Pal]VECG[PEG8]K-NH2; linker I:18-II:18 via X2; thioether I:N-I:15, II:N-II:15) | A (The peptide with 50% or more activity when 1 nM of the peptide was added was evaluated as A) | 96% | A (The peptide with 50% or more activity when 1 nM of the peptide was added was evaluated as A)
